Experimental data from ChEMBL document CHEMBL1122448, “New carboxyalkyl inhibitors of brain enkephalinase: synthesis, biological activity, and analgesic properties” (J Med Chem, 1983).
Where a SMILES comes first, the peptide text is derived from it.

What was measured:
Mus musculus = test: Number of writhings 10 min after intracerebroventricular administration of 10 microg 3 and ip administration of naloxone (10 min before compound is administered).; type: functional
Neprilysin = target: T1, Neprilysin (Mus musculus, UniProt Q61391)
T1 sequence (Q61391 whole entry): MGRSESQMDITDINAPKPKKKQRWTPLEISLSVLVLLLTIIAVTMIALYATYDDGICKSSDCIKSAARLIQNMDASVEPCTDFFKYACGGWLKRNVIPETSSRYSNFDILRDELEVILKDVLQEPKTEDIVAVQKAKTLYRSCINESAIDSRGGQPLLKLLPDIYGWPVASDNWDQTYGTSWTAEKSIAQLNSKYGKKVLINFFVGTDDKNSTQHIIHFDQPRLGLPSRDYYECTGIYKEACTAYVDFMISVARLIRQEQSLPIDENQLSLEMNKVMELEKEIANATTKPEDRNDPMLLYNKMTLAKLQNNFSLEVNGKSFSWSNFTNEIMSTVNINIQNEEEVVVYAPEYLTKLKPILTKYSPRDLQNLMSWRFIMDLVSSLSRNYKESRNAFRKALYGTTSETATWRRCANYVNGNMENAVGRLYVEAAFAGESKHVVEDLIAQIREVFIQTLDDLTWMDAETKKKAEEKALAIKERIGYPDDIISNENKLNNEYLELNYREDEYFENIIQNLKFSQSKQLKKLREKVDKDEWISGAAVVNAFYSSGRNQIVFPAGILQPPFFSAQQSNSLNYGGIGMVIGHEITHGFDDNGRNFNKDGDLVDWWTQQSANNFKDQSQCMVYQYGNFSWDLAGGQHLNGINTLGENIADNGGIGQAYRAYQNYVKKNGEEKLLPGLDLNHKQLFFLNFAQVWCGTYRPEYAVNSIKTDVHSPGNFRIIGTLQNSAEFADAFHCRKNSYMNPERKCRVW
Description: 50% Inhibitory potency against enkephalinase from mouse striatum.

[1] = target: T2, Angiotensin-converting enzyme (Mus musculus, UniProt P09470); test: 50% Inhibitory potency against angiotensin I converting enzyme from mouse striatum.
T2 sequence (P09470 whole entry): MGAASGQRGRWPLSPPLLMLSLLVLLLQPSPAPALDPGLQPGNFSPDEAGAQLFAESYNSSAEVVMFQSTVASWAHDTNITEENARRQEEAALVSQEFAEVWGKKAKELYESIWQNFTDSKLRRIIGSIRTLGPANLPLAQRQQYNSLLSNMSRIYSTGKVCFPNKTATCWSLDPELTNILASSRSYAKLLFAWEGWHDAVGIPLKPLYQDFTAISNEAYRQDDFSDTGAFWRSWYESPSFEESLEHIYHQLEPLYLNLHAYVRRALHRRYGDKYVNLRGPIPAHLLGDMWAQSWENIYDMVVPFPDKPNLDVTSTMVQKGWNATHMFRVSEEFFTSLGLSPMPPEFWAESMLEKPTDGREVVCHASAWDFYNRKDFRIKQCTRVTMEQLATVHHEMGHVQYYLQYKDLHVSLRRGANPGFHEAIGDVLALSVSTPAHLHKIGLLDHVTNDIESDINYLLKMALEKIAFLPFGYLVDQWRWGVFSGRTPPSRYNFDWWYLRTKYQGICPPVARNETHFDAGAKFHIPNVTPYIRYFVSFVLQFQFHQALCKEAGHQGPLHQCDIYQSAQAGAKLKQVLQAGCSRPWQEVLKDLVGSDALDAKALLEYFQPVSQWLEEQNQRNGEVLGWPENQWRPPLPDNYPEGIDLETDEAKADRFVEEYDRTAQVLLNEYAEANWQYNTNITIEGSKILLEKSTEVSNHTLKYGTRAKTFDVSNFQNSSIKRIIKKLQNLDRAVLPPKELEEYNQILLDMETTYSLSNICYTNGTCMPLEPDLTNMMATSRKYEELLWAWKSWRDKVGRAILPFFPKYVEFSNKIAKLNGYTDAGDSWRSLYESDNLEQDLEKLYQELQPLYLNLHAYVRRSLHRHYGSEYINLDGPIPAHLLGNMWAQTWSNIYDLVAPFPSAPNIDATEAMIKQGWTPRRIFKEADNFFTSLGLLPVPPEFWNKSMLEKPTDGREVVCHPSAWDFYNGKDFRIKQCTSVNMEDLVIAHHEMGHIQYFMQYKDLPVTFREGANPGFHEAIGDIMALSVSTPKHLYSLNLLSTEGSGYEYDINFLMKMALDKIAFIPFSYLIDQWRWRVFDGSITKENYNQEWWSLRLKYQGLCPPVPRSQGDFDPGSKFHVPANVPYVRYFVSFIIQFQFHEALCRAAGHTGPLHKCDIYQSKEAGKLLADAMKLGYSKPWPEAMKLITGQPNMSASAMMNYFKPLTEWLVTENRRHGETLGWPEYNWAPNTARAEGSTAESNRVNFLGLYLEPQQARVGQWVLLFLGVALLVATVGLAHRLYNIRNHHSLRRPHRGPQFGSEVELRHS

[2] = target: T2, Angiotensin-converting enzyme
Description: 50% Inhibitory potency against Angiotensin I converting enzyme from mouse striatum.

**Q.** How did the Writhing number (Mus musculus) turn out when `C=CCN1CC[C@]23c4c5ccc(O)c4O[C@H]2C(=O)CC[C@@]3(O)[C@H]1C5.CC(C)CC(NC(=O)C(Cc1ccccc1)C(=O)O)C(=O)O` was run?
**A.** Its Writhing number is 29.7.

**Q.** `CC(C)C[C@H](NC(=O)[C@@H](Cc1ccccc1)NCC(=O)O)C(=O)O` was tested. Which IC50 (Neprilysin) did it give?
**A.** Its IC50 is over 100 µM.

**Q.** `CC(C)CC(NC(=O)C(CC(=O)O)Cc1ccccc1)C(=O)O` (stereo not drawn) was tested. Which IC50 [1] did it give?
**A.** Its IC50 is 20 µM.

**Q.** What about the IC50 (Neprilysin) of the same compound?
**A.** Its IC50 is 0.8 µM.

**Q.** For `CC(C)CC(NC(=O)C(Cc1ccccc1)C(=O)O)C(=O)O` (stereo not drawn), which IC50 (Neprilysin) is on record?
**A.** Its IC50 is 0.7 µM.

**Q.** What about the Writhing number (Mus musculus) of the same compound?
**A.** The Writhing number was 29.7.

**Q.** And the IC50 [2]?
**A.** The IC50 was over 1000 µM.

**Q.** With `CC(C)CC(NC(=O)C(Cc1ccccc1)NCCC(=O)O)C(=O)O` (stereo not drawn) as the compound, how does the IC50 [1] read?
**A.** Its IC50 is over 100 µM.

**Q.** And the IC50 (Neprilysin)?
**A.** The IC50 was 11 µM.

**Q.** What does the source list for `CC(C)C[C@H](NC(=O)[C@H](Cc1ccccc1)NCC(=O)O)C(=O)O`?
**A.** IC50 [1]: 2 µM; IC50 (Neprilysin): 2 µM

**Q.** With `CC(C)C[C@@H](NC(=O)[C@@H](Cc1ccccc1)NCC(=O)O)C(=O)O` as the compound, how does the IC50 (Neprilysin) read?
**A.** Its IC50 is 18 µM.

**Q.** Which IC50 [1] does the source give for `C[C@H](NC(=O)[C@H](Cc1ccccc1)NCC(=O)O)C(=O)O` here?
**A.** The IC50 was 4 µM.

**Q.** What about the IC50 (Neprilysin) of the same compound?
**A.** Its IC50 is 0.5 µM.

**Q.** With `CC(C)C[C@H](NC(=O)[C@@H](N)Cc1ccccc1)C(=O)O` (H-Phe-Leu-OH) as the compound, how does the IC50 (Neprilysin) read?
**A.** Its IC50 is 20 µM.

**Q.** What about the IC50 [2] of the same compound?
**A.** The IC50 was 700 µM.

**Q.** Which IC50 (Neprilysin) does the source give for `CC(C)CC(NC(=O)[C@H](Cc1ccccc1)NCC(=O)O)C(=O)O` (single isomer, unassigned) here?
**A.** Its IC50 is 11 µM.

**Q.** Which Writhing number (Mus musculus) does the source give for `C=CCN1CC[C@]23c4c5ccc(O)c4O[C@H]2C(=O)CC[C@@]3(O)[C@H]1C5` [NALOXONE] here?
**A.** The Writhing number was 31.2.
